Experimental data as given in patent US10501449B2 (priority 2018, dated 2019).

The compounds below were run against hROMK (human Kir1.1) (Homo sapiens (Human), UniProt P48048) (assay: cell-based). Conditions: CHO T-Rex hROMK stable cell line; thallium flux; 10-point concentration response curve; read-out: Human ROMK Th Flux IC50.
hROMK (human Kir1.1), sequence (P48048 whole entry): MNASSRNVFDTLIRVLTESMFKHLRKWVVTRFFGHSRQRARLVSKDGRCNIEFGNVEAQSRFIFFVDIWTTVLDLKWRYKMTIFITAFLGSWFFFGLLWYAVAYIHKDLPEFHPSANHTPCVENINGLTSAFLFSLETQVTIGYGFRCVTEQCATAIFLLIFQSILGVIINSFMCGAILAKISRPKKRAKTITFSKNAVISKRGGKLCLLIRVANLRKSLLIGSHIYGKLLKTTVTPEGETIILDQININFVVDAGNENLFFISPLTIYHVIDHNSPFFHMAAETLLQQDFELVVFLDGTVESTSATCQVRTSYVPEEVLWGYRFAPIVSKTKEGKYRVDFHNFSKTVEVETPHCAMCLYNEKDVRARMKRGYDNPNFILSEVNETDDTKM
Compound `Cc1cc(-n2cnc(CN3C[C@@H](c4ccc5c(c4C)COC5=O)N[C@@H](C)C3)c2)cc(C)n1` [Example 181-I, 5-((2R,6S)-4-((1-(2,6-dimethylpyridin-4-yl)-1H-imidazol-4-yl)methyl)-6-methylpiperazin-2-yl)-4-methylisobenzofuran-1(3H)-one] has an IC50 of 150 nM.
Compound `COc1cc(N2CC(CN3C[C@@H](c4ccc5c(c4C)COC5=O)N[C@@H](C)C3)CC2=O)ccn1` (stereo partly drawn) [Example 254-I, 1-(2-methoxypyridin-4-yl)-4-(((3S,5R)-3-methyl-5-(4-methyl-1-oxo-1,3-dihydroisobenzofuran-5-yl)piperazin-1-yl)methyl)pyrrolidin-2-one] has an IC50 of 1600 nM.
Compound `Cc1c([C@@H]2CN(Cc3cnn(-c4ccc(S(C)(=O)=O)cc4)c3)CCO2)ccc2c1COC2=O` [Example 45-I, (R)-4-methyl-5-(4-((1-(4-(methylsulfonyl)phenyl)-1H-pyrazol-4-yl)methyl)morpholin-2-yl)isobenzofuran-1(3H)-one] has an IC50 of 370 nM.
With `Cc1c([C@@H]2CN(Cc3nnc(-c4ccc(C#N)cn4)o3)CCO2)ccc2c1COC2=O` [Example 12-I, (R)-6-(5-((2-(4-methyl-1-oxo-1,3-dihydroisobenzofuran-5-yl)morpholino)methyl)-1,3,4-oxadiazol-2-yl)nicotinonitrile] the IC50 was 530 nM.
Work on `Cc1ccc(-n2cnc(CN3C[C@@H](c4ccc5c(c4C)COC5=O)N[C@@H](C)C3)c2)cc1` [Example 178-I, 4-methyl-5-((2R,6S)-6-methyl-4-((1-(p-tolyl)-1H-imidazol-4-yl)methyl)piperazin-2-yl)isobenzofuran-1(3h)-one] yielded an IC50 of 220 nM.
`Cc1c([C@@H]2CN(Cc3ccc(-c4ccnc(N5CCOC5=O)c4)nc3)C[C@H](C)N2)ccc2c1COC2=O` [Example 174-I, 3-(5-(((3S,5R)-3-methyl-5-(4-methyl-1-oxo-1,3-dihydroisobenzofuran-5-yl)piperazin-1-yl)methyl)-[2,4′-bipyridin]-2′-yl)oxazolidin-2-one] gave an IC50 of 220 nM.
In the case of `Cc1noc(-c2ccc(CN3CCN[C@H](c4ccc5c(c4C)COC5=O)C3)cn2)n1` [Example 264-I, (R)-4-methyl-5-(4-((6-(3-methyl-1,2,4-oxadiazol-5-yl)pyridin-3-yl)methyl)piperazin-2-yl)isobenzofuran-1(3H)-one], the IC50 is reported as 580 nM.
`Cc1cnccc1-n1cnc(CN2C[C@@H](c3ccc4c(c3C)COC4=O)N[C@@H](C)C2)c1` [Example 179-I, 4-methyl-5-((2R,6S)-6-methyl-4-((1-(3-methylpyridin-4-yl)-1H-imidazol-4-yl)methyl)piperazin-2-yl)isobenzofuran-1(3H)-one] was tested, and the IC50 was 360 nM.
`CC(=O)NC1CC(c2ccc3c(c2C)COC3=O)CN(Cc2cnn(-c3cc(C)c(C#N)cn3)c2)C1` (single isomer, unassigned) [Example 257-I, N-(1-((1-(5-cyano-4-mehtylpyridin-2-yl)-1H-pyrazol-4-yl)methyl)-5-(4-methyl-1-oxo-1,3-dihydroisobenzofuran-5-yl)piperidin-3-yl)acetamide] showed an IC50 of 1400 nM.
In the case of `Cc1c([C@@H]2CN(Cc3cnn(-c4ccc(S(C)(=O)=O)cn4)c3)C[C@H](C)N2)ccc2c1COC2=O` [Example 161-I, 4-methyl-5-((2R,6S)-6-methyl-4-((1-(5-(methylsulfonyl)pyridin-2-yl)-1H-pyrazol-4-yl)methyl)piperazin-2-yl)isobenzofuran-1(3H)-one], the IC50 is reported as 170 nM.
In the case of `Cc1c([C@@H]2CN(Cc3cnc(-n4c(C)nnc4C)nc3)CCN2)ccc2c1COC2=O` [Example 201-I, (R)-5-(4-((2-(3,5-dimethyl-4H-1,2,4-triazol-4-yl)pyrimidn-5-yl)methyl)piperazin-2-yl)-4-methylisobenzofuran-1(3H)-one], the IC50 is reported as 190 nM.
With `Cc1cc(-n2ccc(CN3CCO[C@H](c4ccc5c(c4C)COC5=O)C3)n2)ncc1C#N` [Example 53-I, (R)-4-methyl-6-(3-((2-(4-methyl-1-oxo-1,3-dihydroisobenzofuran-5-yl)morpholino)methyl)-1H-pyrazol-1-yl) nicotinonitrile] the IC50 was 370 nM.
`COc1cc(-c2ncc(C(=O)N3CCO[C@H](c4ccc5c(c4C)COC5=O)C3)s2)ncc1C#N` [Example 34-I, (R)-4-methoxy-6-(5-(2-(4-methyl-1-oxo-1,3-dihydroisobenzofuran-5-yl)morpholine-4-carbonyl)thiazol-2-yl) nicotinonitrile] gave an IC50 of 190 nM.
Compound `Cc1c([C@@H]2CN(Cc3cn(-c4ccc5oc(=O)n(C)c5c4)nn3)CC(=O)N2)ccc2c1COC2=O` [Example 72-I, (R)-3-methyl-5-(4-((3-(4-methyl-1-oxo-1,3-dihydroisobenzofuran-5-yl)-5-oxopiperazin-1-yl)methyl)-1H-1,2,3-triazol-1-yl)benzo[d] oxazol-2(3H)-one] has an IC50 of 550 nM.
In the case of `Cc1c([C@@H]2CN(Cc3cnn(-c4cnccn4)c3)CCO2)ccc2c1COC2=O` [Example 39-I, (R)-4-methyl-5-(4-((1-(pyrazin-2-yl)-1H-pyrazol-4-yl)methyl)morpholin-2-yl)isobenzo-furan-1(3H)-one], the IC50 is reported as 770 nM.
`Cc1cc(-c2cnc(CN3CCN[C@H](c4ccc5c(c4C)COC5=O)C3)nc2)ncc1C#N` [Example 183-I, (R)-4-methyl-6-(2-((3-(4-methyl-1-oxo-1,3-dihydroisobenzofuran-5-yl)piperazin-1-yl)methyl)pyrimidin-5-yl)nicotinonitrile] gave an IC50 of 180 nM.
Compound `Cc1cn(-c2ncc(CN3CCO[C@H](c4ccc5c(c4C)COC5=O)C3)cn2)cn1` [Example 224-I, (R)-4-methyl-5-(4-((2-(4-methyl-1H-imidazol-1-yl)pyrimidin-5-yl)methyl)morpholin-2-yl)isobenzofuran-1(3H)-one] has an IC50 of 27 nM.
`COc1cc(-n2cc(CN3CCN[C@H](c4ccc5c(c4C)COC5=O)C3)cn2)cc2c1oc(=O)n2C` [Example 56-I, (R)-7-methoxy-3-methyl-5-(4-((3-(4-methyl-1-oxo-1,3-dihydroiso-benzofuran-5-yl)piperazin-1-yl)methyl)-1H-pyrazol-1-yl)benzo[d] oxazol-2(3H)-one] was tested, and the IC50 was 150 nM.
Work on `Cc1cc(-n2ccc(CN3C[C@@H](c4ccc5c(c4C)COC5=O)N[C@@H](C)C3)cc2=O)ncc1C#N` [Example 247-I, 4′-methyl-4-(((3S,5R)-3-methyl-5-(4-methyl-1-oxo-1,3-dihydroisobenzofuran-5-yl)piperazin-1-yl)methyl)-2-oxo-2H-[1,2′-bipyridine]-5′-carbonitrile] yielded an IC50 of 330 nM.
In the case of `COc1cc(-n2cc(CN3CC(c4ccc5c(c4C)COC5=O)NC(C(C)O)C3)cn2)ncc1C#N` (single isomer, unassigned) [Example 204-I, 6-(4-((3-(1-hydroxyethyl)-5-(4-methyl-1-oxo-1,3-dihydroisobenzofuran-5-yl)piperazin-1-yl)methyl)-1H-pyrazol-1-yl)-4-methoxynicotinonitrile], the IC50 is reported as 220 nM.
Work on `Cc1c([C@@H]2CN(Cc3ccc(-n4cnc(C#N)n4)nc3)CC(=O)N2)ccc2c1COC2=O` [Example 73-I, (R)-1-(5-((3-(4-methyl-1-oxo-1,3-dihydroiso-benzofuran-5-yl)-5-oxo-piperazin-1-yl)methyl)pyridin-2-yl)-1H-1,2,4-triazole-3-carbonitrile] yielded an IC50 of 150 nM.
Compound `Cc1cc(-n2cc(CN3C[C@@H](c4ccc5c(c4C)COC5=O)OCC3=O)cn2)ncc1C#N` [Example 10-I, (R)-4-methyl-6-(4-((2-(4-methyl-1-oxo-1,3-dihydroisobenzofuran-5-yl)-5-oxomorpholino)methyl)-1H-pyrazol-1-yl)nicotinonitrile] has an IC50 of 620 nM.
Compound `Cc1cc(-c2nnc(CN3CC(c4ccc5c(c4C)COC5=O)NC(C(F)F)C3)o2)ncc1C#N` (single isomer, unassigned) [Example 273-I, 6-(5-((3-(difluoromethyl)-5-(4-methyl-1-oxo-1,3-dihydroisobenzofuran-5-yl)piperazin-1-yl)methyl)-1,3,4-oxadiazol-2-yl)-4-methylnicotinonitrile] has an IC50 of 720 nM.
`Cc1c([C@@H]2CN(Cc3cnn(-c4ccn5nccc5n4)c3)CCO2)ccc2c1COC2=O` [Example 50-I, (R)-4-methyl-5-(4-((1-(pyrazolo[1,5-a]pyrimidin-5-yl)-1H-pyrazol-4-yl)methyl)morpholin-2-yl)isobenzofuran-1(3H)-one] gave an IC50 of 670 nM.
With `COc1ncc(-n2cc(CN3C[C@@H](c4ccc5c(c4C)COC5=O)N[C@@H](C)C3)cn2)cn1` [Example 208-I, 5-((2R,6S)-4-((1-(2-methoxypyrimidin-5-yl)-1H-pyrazol-4-yl)methyl)-6-methylpiperazin-2-yl)-4-methylisobenzofuran-1(3H)-one] the IC50 was 190 nM.
With `Cc1c([C@@H]2CN(Cc3cnc(-n4cncn4)nc3)CCN2)ccc2c1COC2=O` [Example 234-I, (R)-5-(4-((2-(1H-1,2,4-triazol-1-yl)pyrimidin-5-yl)methyl)piperazin-2-yl)-4-methylisobenzofuran-1(3H)-one] the IC50 was 78 nM.
Compound `Cc1cncc(-n2cc(CN3CCO[C@H](c4ccc5c(c4C)COC5=O)C3)cn2)n1` [Example 41-I, (R)-4-methyl-5-(4-((1-(6-methylpyrazin-2-yl)-1H-pyrazol-4-yl)methyl)morpholin-2-yl) isobenzofuran-1(3H)-one] has an IC50 of 980 nM.
`COc1cc(-c2ccc(CN3C[C@@H](c4ccc5c(c4C)COC5=O)OC3=O)cn2)ncc1C#N` [Example 17-I, (R)-4-methoxy-5′-((5-(4-methyl-1-oxo-1,3-dihydroisobenzofuran-5-yl)-2-oxooxazolidin-3-yl)methyl)-[2,2′-bipyridine]-5-carbonitrile] showed an IC50 of 900 nM.
`Cc1cc(-n2cc(CN3CCC(=O)C(c4ccc5c(c4C)COC5=O)C3)cn2)ncc1C#N` (stereo not drawn) [Example 232-I, 4-methyl-6-(4-((3-(4-methyl-1-oxo-1,3-dihydroisobenzofuran-5-yl)-4-oxopiperidin-1-yl)methyl)-1H-pyrazol-1-yl)nicotinonitrile] gave an IC50 of 480 nM.
Compound `Cc1ccc(-n2cnc(CN3C[C@@H](c4ccc5c(c4C)COC5=O)N[C@@H](C)C3)c2)cn1` [Example 180-I, 4-methyl-5-((2R,6S)-6-methyl-4-((1-(6-methylpyridin-3-yl)-1H-imidazol-4-yl)methyl)piperazin-2-yl)isobenzofuran-1(3H)-one] has an IC50 of 77 nM.
